# Test results as given in patent US10471050B2, “2-OXO-1,2-dihydropyridine-3,5-dicarboxamide compounds as bromodomain inhibitors” (GlaxoSmithKline Intellectual Property (No. 2) Limited, priority 2015, dated 2019).
# Target: T1, BRD4 BD2 (Homo sapiens, UniProt O60885, Y97A)
# T1 construct: BRD4 (1-477) (Y97A) and (Y390A); made in house; host or cells: E. coli (pET15b vector)
# Assay: BRD4 BD2 TR-FRET competition assay
# Format: binding
# Conditions: average of N recorded values, read-out: BRD4 BD2 IC50 (average value) (converted)
# Experimental: Bromodomain binding was assessed utilising a time resolved fluorescent resonance energy transfer (TR-FRET) competition assay. To enable this approach a known, high affinity, pan-BET interacting small molecule was labelled with Alexa Fluor® 647, which is a far-red-fluorescent dye (Reference Compound X). Reference Compound X acts as a reporter of bromodomain binding and is the acceptor fluorophore component of the TR-FRET pair. Europium chelate, conjugated to an anti-6*His antibody, was utilised as the donor fluorophore in the TR-FRET pair. […] A TR-FRET signal is generated when the donor and acceptor fluorophores are in close proximity, between 20-80 Å, which is enabled in this assay by binding of Reference Compound X to the bromodomain protein.
# In order to generate a TR-FRET signal, donor fluorophore is excited by a laser at λ337 nm, which subsequently leads to emission at λ618 nm. If the acceptor fluorophore is in close proximity then energy transfer can occur, which leads to emission of Alexa Fluor® 647 at λ665 nm. In the presence of competitor compound, Reference Compound X can be displaced from binding to the bromodomain. If displacement occurs, the acceptor fluorophore is no longer in proximity to the donor fluorophore, which prevents fluorescent energy transfer and, subsequently, a loss of Alexa Fluor® 647 emission at λ665 nm.
# The competition of the compounds of formula (I) with Reference Compound X for binding to the BET family (BRD2, BRD3, BRD4 and BRDT) was assessed using protein truncates spanning both bromodomain 1 (BD1) and bromodomain 2 (BD2). In order to monitor differential binding to either BD1 or BD2, single residue mutations of key tyrosines to alanine were made in the acetyl lysine binding pockets. To validate this approach, a double residue mutant tandem domain protein was produced for each of the BET family members. Utilising a Fluorescence Polarisation approach, binding affinities for each of the single and double mutants for Reference Compound X were determined.
# Final purification was completed by Superdex 200 prep grade size exclusion column. Purified protein was stored at −80° C. in 20 mM HEPES pH 7.5 and 100 mM NaCl.
# All assay components were dissolved in an assay buffer composing of 50 mM HEPES pH7.4, 50 mM NaCl, 5% Glycerol, 1 mM DTT and 1 mM CHAPS. Reference Compound X was diluted, in assay buffer containing 20 nM single mutant, tandem bromodomain protein, to a concentration equivalent to 2*Kd for this bromodomain. The solution containing bromodomain and Reference Compound X was added to dose response dilutions of test compound or DMSO vehicle (a maximum of 0.5% DMSO is used in this assay) in Greiner 384 well black low volume microtitre plates and subsequently incubated for 30 minutes at room temperature. An equal volume of 3 nM of anti-6*His Europium chelate was added to all wells, followed by a further 30 minute incubation at room temperature. TR-FRET was detected using a Perkin Elmer Multimode plate reader, by exciting the donor fluorophore at λ337 nm and subsequently, after a delay of 50 μsecs, measuring emission of the donor and acceptor fluorophores at λ615 nm and λ665 nm, respectively. In order to control these assays, 16 replicates each of uninhibited (DMSO vehicle) and inhibited (10*IC50 concentrations of Example 11 of WO 2011/054846A1) TR-FRET assays were included on every microtitre plate.
# cA four parameter curve fit of the following form was then applied: y=a+((b−a)/(1+(10^x/10^c)^d)
# Where ‘a’ is the minimum, ‘b’ is the Hill slope, ‘c’ is the pIC50 and ‘d’ is the maximum.
row,Compound,IC50 [nM]
1,"CCNC(=O)c1cc(C(=O)NC)c(=O)n(Cc2cccc(OCCO)c2)c1 [Example 20, N^5-Ethyl-1-(3-(2-hydroxyethoxy)benzyl)-N^3-methyl-2-oxo-1,2-dihydropyridine-3,5-dicarboxamide]",251
2,"CNC(=O)c1cc(C(=O)NCCCc2ncc[nH]2)cn(Cc2ccccc2)c1=O [Example 11, N^5-(3-(1H-Imidazol-2-yl)propyl)-1-benzyl-N^3-methyl-2-oxo-1,2-dihydropyridine-3,5-dicarboxamide]",63.1

# Same assay, conditions: single mutant tandem BRD4, read-out: pIC50 in the BRD4 BD2 assay (converted)
row,Compound,IC50 [nM]
1,"CNC(=O)c1cc(C(=O)NCCc2c[nH]cn2)cn(Cc2cccc3[nH]ccc23)c1=O [Example 24, N^5-(2-(1H-Imidazol-4-yl)ethyl)-1-((1H-indol-4-yl)methyl)-N^3-methyl-2-oxo-1,2-dihydropyridine-3,5-dicarboxamide]",≤ 100
2,"CNC(=O)c1cc(C(=O)NCCc2cn[nH]c2)cn(Cc2cccc3[nH]ccc23)c1=O [Example 26, 1-((1H-Indol-4-yl)methyl)-N^5-(2-(1H-pyrazol-4-yl)ethyl)-N^3-methyl-2-oxo-1,2-dihydropyridine-3,5-dicarboxamide]",≤ 100
3,"CNC(=O)c1cc(C(=O)NCCCC#N)cn(Cc2ccccc2)c1=O [Example 36, 1-Benzyl-N^5-(3-cyanopropyl)-N^3-methyl-2-oxo-1,2-dihydropyridine-3,5-dicarboxamide]",100 to 1000
4,"CCNC(=O)c1cc(C(=O)NC)c(=O)n([C@H](C)c2ccccc2)c1 [Example 16, (R)-N^5-Ethyl-N^3-methyl-2-oxo-1-(1-phenylethyl)-1,2-dihydropyridine-3,5-dicarboxamide]",100 to 1000
5,"CCNC(=O)c1cc(C(=O)NC)c(=O)n(Cc2cccc(C)c2)c1 [Example 14, N^5-Ethyl-N^3-methyl-1-(3-methylbenzyl)-2-oxo-1,2-dihydropyridine-3,5-dicarboxamide]",100 to 1000
6,"CNC(=O)c1cc(C(=O)Nc2ccn(C)n2)cn(Cc2ccccc2)c1=O [Example 51, 1-Benzyl-N^3-methyl-N^5-(1-methyl-1H-pyrazol-3-yl)-2-oxo-1,2-dihydropyridine-3,5-dicarboxamide]",100 to 1000
7,"CNC(=O)c1cc(C(=O)NCCS(C)(=O)=O)cn(Cc2ccccc2)c1=O [Example 45, 1-Benzyl-N^3-methyl-N^5-(2-(methylsulfonyl)ethyl)-2-oxo-1,2-dihydropyridine-3,5-dicarboxamide]",100 to 1000
8,"CNC(=O)c1cc(C(=O)NCCc2cnn(C)c2)cn(Cc2ccccc2)c1=O [Example 52, 1-Benzyl-N^3-methyl-N^5-(2-(1-methyl-1H-pyrazol-4-yl)ethyl)-2-oxo-1,2-dihydropyridine-3,5-dicarboxamide]",100 to 1000
9,"CNC(=O)c1cc(C(=O)Nc2cnn(C)c2)cn(Cc2ccccc2)c1=O [Example 53, 1-Benzyl-N^3-methyl-N^5-(1-methyl-1H-pyrazol-4-yl)-2-oxo-1,2-dihydropyridine-3,5-dicarboxamide]",≤ 100
10,"CNC(=O)c1cc(C(=O)NCCCc2ncc[nH]2)cn(Cc2ccccc2)c1=O [Example 11, N^5-(3-(1H-Imidazol-2-yl)propyl)-1-benzyl-N^3-methyl-2-oxo-1,2-dihydropyridine-3,5-dicarboxamide]",≤ 100
11,"CCCCNC(=O)c1cc(C(=O)NC)c(=O)n(Cc2ccccc2)c1 [Example 3, 1-Benzyl-N^5-butyl-N^3-methyl-2-oxo-1,2-dihydropyridine-3,5-dicarboxamide]",100 to 1000
12,"CNC(=O)c1cc(C(=O)NCCCN)cn(Cc2ccccc2)c1=O [Example 38, N^5-(3-Aminopropyl)-1-benzyl-N^3-methyl-2-oxo-1,2-dihydropyridine-3,5-dicarboxamide]",100 to 1000
13,"CNC(=O)c1cc(C(=O)NCCc2cn[nH]c2)cn(Cc2ccccc2)c1=O [Example 12, N^5-(2-(1H-Pyrazol-4-yl)ethyl)-1-benzyl-N^3-methyl-2-oxo-1,2-dihydropyridine-3,5-dicarboxamide]",≤ 100
14,"CNC(=O)c1cc(C(=O)NCCC(C)N(C)C)cn(Cc2ccccc2)c1=O (stereo not shown) [Example 33, 1-Benzyl-N^5-(3-(dimethylamino)butyl)-N^3-methyl-2-oxo-1,2-dihydropyridine-3,5-dicarboxamide]",100 to 1000
15,"CCNC(=O)c1cc(C(=O)NC)c(=O)n(Cc2cccc(C)c2F)c1 [Example 22, N^5-Ethyl-1-(2-fluoro-3-methylbenzyl)-N^3-methyl-2-oxo-1,2-dihydropyridine-3,5-dicarboxamide]",100 to 1000
16,"CNC(=O)c1cc(C(=O)NCCc2cn[nH]c2)cn(Cc2cccc(C)c2F)c1=O [Example 23, N^5-(2-(1H-Pyrazol-4-yl)ethyl)-1-(2-fluoro-3-methylbenzyl)-N^3-methyl-2-oxo-1,2-dihydropyridine-3,5-dicarboxamide]",100 to 1000
17,"CNC(=O)c1cc(C(=O)NCCc2cccnc2)cn(Cc2ccccc2)c1=O [Example 40, 1-Benzyl-N^3-methyl-2 oxo-N^5-(2-(pyridin-3-yl)ethyl)-1,2-dihydropyridine-3,5-dicarboxamide]",100 to 1000
18,"CNC(=O)c1cc(C(=O)NCC(C)O)cn(Cc2ccccc2)c1=O (stereo not shown) [Example 31, 1-Benzyl-N^5-(2-hydroxypropyl)-N^3-methyl-2-oxo-1,2-dihydropyridine-3,5-dicarboxamide]",1000 to 100000
19,"CNC(=O)c1cc(C(=O)NCCc2ccccn2)cn(Cc2ccccc2)c1=O [Example 10, 1-Benzyl-N^3-methyl-2-oxo-N^5-(2-(pyridin-2-yl)ethyl)-1,2-dihydropyridine-3,5-dicarboxamide]",100 to 1000

# Results, then the compound that gave them:
row,IC50 [nM],Compound
1,100 to 1000,"CNC(=O)c1cc(C(=O)NCCc2c[nH]cn2)cn(Cc2cccc(C)c2F)c1=O [Example 49, N^5-(2-(1H-Imidazol-4-yl)ethyl)-1-(2-fluoro-3-methylbenzyl)-N3-methyl-2-oxo-1,2-dihydropyridine-3,5-dicarboxamide]"
2,100 to 1000,"CNC(=O)c1cc(C(=O)NCCCC(=O)OC)cn(Cc2ccccc2)c1=O [Example 9, Methyl 4-(1-benzyl-5-(methylcarbamoyl)-6-oxo-1,6-dihydropyridine-3-carboxamido)butanoate]"
3,100 to 1000,"CNC(=O)c1cc(C(=O)NCCCOC)cn(Cc2ccccc2)c1=O [Example 42, 1-Benzyl-N^5-(3-methoxypropyl)-N^3-methyl-2-oxo-1,2-dihydropyridine-3,5-dicarboxamide]"
4,100 to 1000,"CCNC(=O)c1cc(C(=O)NC)c(=O)n(Cc2cccc(OCCO)c2)c1 [Example 20, N^5-Ethyl-1-(3-(2-hydroxyethoxy)benzyl)-N^3-methyl-2-oxo-1,2-dihydropyridine-3,5-dicarboxamide]"
5,100 to 1000,"CNC(=O)c1cc(C(=O)NCCCS(C)(=O)=O)cn(Cc2ccccc2)c1=O [Example 48, 1-Benzyl-N^3-methyl-N^5-(3-(methylsulfonyl)propyl)-2-oxo-1,2-dihydropyridine-3,5-dicarboxamide]"
6,100 to 1000,"CNC(=O)c1cc(C(=O)NCCC(F)(F)F)cn(Cc2ccccc2)c1=O [Example 7, 1-Benzyl-N^3-methyl-2-oxo-N^5-(3,3,3-trifluoropropyl)-1,2-dihydropyridine-3,5-dicarboxamide]"
7,100 to 1000,"CCNC(=O)c1cc(C(=O)NC)c(=O)n(Cc2cccc(OC)c2)c1 [Example 18, N^5-ethyl-1-(3-methoxybenzyl)-N^3-methyl-2-oxo-1,2-dihydropyridine-3,5-dicarboxamide]"
8,100 to 1000,"CNC(=O)CCNC(=O)c1cc(C(=O)NC)c(=O)n(Cc2ccccc2)c1 [Example 35, 1-Benzyl-N^3-methyl-N^5-(3-(methylamino)-3-oxopropyl)-2-oxo-1,2-dihydropyridine-3,5-dicarboxamide]"
9,100 to 1000,"CNC(=O)c1cc(C(=O)NCCc2ccncc2)cn(Cc2ccccc2)c1=O [Example 34, 1-Benyl-N^3-methyl-2-oxo-N^5-(2-(pyridin-4-yl)ethyl)-1,2-dihydropyridine-3,5-dicarboxamide]"
10,100 to 1000,"CNC(=O)c1cc(C(=O)NCCC#N)cn(Cc2ccccc2)c1=O [Example 37, 1-Benzyl-N^5-(2-cyanoethyl)-N^3-methyl-2-oxo-1,2-dihydropyridine-3,5-dicarboxamide]"
